Read-outs that look alike come from different tables or passages of the source.
Assays:
HIV-1 AD8 WT = assay: Antiviral activity on human CD4+ T lymphocytes, AD8 WT; format: cell-based; conditions: Human immunodeficiency virus 1; human CD4+ T lymphocytes; read-out: AD8 WT EC50
Procedure: (§1) The antiviral activity and cytotoxicity of compounds 2, 9e and 9f was tested also on freshly purified human CD4^+ T lymphocytes obtained from healthy blood donors (informed consent available) as described previously on HIV laboratory strain NL4.3 and AD8 [33, 34].

[1] = system: recombinant HIV-1 integrase Q148H, G140S; assay: Antiviral activity on human CD4+ T lymphocytes, integrase mutant Q148H, G140S; format: cell-based; conditions: Human immunodeficiency virus 1, read-out: Q148H, G140S EC50
[2] = system: recombinant HIV-1 integrase Y143R; assay: Antiviral activity on human CD4+ T lymphocytes, integrase mutant Y143R; format: cell-based; conditions: Human immunodeficiency virus 1, read-out: Y143R EC50
[3] = Cytotoxicity on human CD4+ T lymphocytes; format: cell-based
Procedure: as §1

human CD4+ T lymphocytes = assay: Cytotoxicity on human CD4+ T lymphocytes; format: cell-based
Procedure: as §1

HSV-1 = HSV-1 plaque reduction assay on Vero cells; format: cell-based; conditions: read-out: HSV-1 EC50, Vero cells
Procedure: (§2) Clinical isolates of HSV-1 and HSV-2 were kindly provided by Prof. M. Pistello, University of Pisa, Italy. HSV-1 and HSV-2 strains were propagated and titrated by plaque assay on Vero cells. A HSV-2 strain with phenotypic resistance to acyclovir was generated by serial passage in the presence of increasing concentrations of acyclovir, as previously described.
(§3) The effect of the rhodanine derivatives on HSV infection was evaluated by plaque reduction assay. Vero cells were pre-plated 24 h in advance in 24-well plates at a density of […]. Increasing concentrations of compounds were mixed with HSV-2 (MOI 0.001 pfu/cell) or HSV-2 acyclovir resistant (MOI 0.001) or HSV-1 (MOI 0.0005) or and incubated for 1 hour at 37°C. The mixtures were subsequently added to the cells, which were then incubated at 37°C for 2 h. The virus inoculum was then removed and the cells washed and overlaid with a medium containing 1.2% methylcellulose (Sigma). After further incubation at 37°C for 24 h (HSV-2 and HSV-2 R Acy) or 48 h (HSV-1), cells were fixed and stained with 0.1% crystal violet in 20% ethanol and viral plaques counted. The effective concentration producing 50% reduction (EC50) and 90% reduction (EC90) in plaque formation was determined using Prism software by comparing drug-treated with wells treated with medium and solvent. The selectivity index (SI) was calculated by dividing the CC50 by the EC50 value.
(§4) All results are presented as the mean values from three independent experiments. The EC50 values for inhibition curves were calculated by regression analysis using the software GraphPad Prism (GraphPad Software, San Diego, California, U.S.A.) by fitting a variable slope-sigmoidal dose–response curve. Acyclovir was purchased from Sigma Aldrich (Milan, Italy).

[4] = system: HSV-2 acyclovir resistant; assay: HSV-2 acyclovir resistant plaque reduction assay on Vero cells; format: cell-based; conditions: Human alphaherpesvirus 2, Vero, read-out: HSV-2 acyclovir resistant EC50
Procedure: as §2
as §3, with “The virus inoculum was then removed and the cells washed and overlaid with a medium containing 1.2% methylcellulose (Sigma).” left out, “The effective concentration producing 50% reduction (EC50) and 90% reduction (EC90) in plaque formation was determined using Prism software by comparing drug-treated with wells treated with medium and solvent.” left out
as §4, with “Acyclovir was purchased from Sigma Aldrich (Milan, Italy).” left out

HPV-16 PsVs = assay: HPV-16 inhibition assay in HeLa cells; format: cell-based; conditions: up to 50 μM
Procedure: Plasmids and 293TT cells used for pseudovirus (PsV) production were kindly provided by John Schiller (National Cancer Institute, Bethesda, MD). 293TT cell line, derived from human embryonic kidney cells transformed with the simian virus 40 (SV40) large T antigen, was cultured in DMEM (Gibco-BRL, Gaithersburg, MD) supplemented with heat inactivated 10% FCS (Gibco- BRL), Glutamax-I 1% (Invitrogen, Carlsbad, CA) and nonessential amino acids 1% (Sigma Aldrich, Steinheim, Germany). HPV-16 PsVs were produced as described in Cagno et al 2015. 293TT cells were transfected with plasmid expressing the papillomavirus major and minor capsid proteins (L1 and L2, respectively), together with a reporter plasmid expressing GFP. Capsids were allowed to mature overnight in cell lysate; the clarified supernatant was then loaded on top of a density gradient of 27 to 33 to 39% Optiprep at room temperature for 3 h. The material was centrifuged at 28000 rpm for 16 h at 4°C in an SW41.1 rotor (Beckman Coulter, Inc., Fullerton, CA) and then collected by bottom puncture of the tubes. […] The L1 protein content of PsV stocks was determined by comparison with bovine serum albumin standards in Coomassie-stained SDS-polyacrylamide gels. […]

NL4.3 HIV strain = assay: Antiviral activity in microbicide gel formulation, transwell experiment, TZM-bl cells; format: cell-based, HIV-1; conditions: Human immunodeficiency virus 1, gel at 50%
Procedure: All the semi-solid formulations were prepared adding at the pre-gel solution reported above hydroxyethyl cellulose (HEC) (1.8% w/v). In all samples, 0.2% v/v propionic acid was added to aqueous solution in order to preserve form bacteria and mold contamination. HEC was dispersed in the pre-gel solution at 25°C under magnetic stirring, overnight.
Antiviral activity of compound 2 on NL4.3 HIV strain was evaluated also in a gel formulation. To reproduce more physiological conditions, TZM-bl cells were seeded into transwells and the gel was applied onto the cell monolayer at 50% fixed concentration with serial drug dilutions as previously described. Briefly, 4x10^4 TZM-bl cells were plated into each transwell apical chamber of a 24-well plate (pore size 3μm and diameter 6,5 mm, Corning) containing medium in the bottom plate and cultured overnight. For efficacy testing, 60 TCID50 of virus was added to each apical well in the presence of 100 μL of compound 2 gel, tenofovir gel or blank gel at the final drug concentrations of 25μM, 10 μM and 5 μM. Inhibition of infection was determined as previously based on deviations from blank gel.

[5] = Storage stability and rheological characterization of gel; format: physicochemical; conditions: 50 μM, 25°C in the dark
Procedure: All the semi-solid formulations were prepared adding at the pre-gel solution reported above hydroxyethyl cellulose (HEC) (1.8% w/v). In all samples, 0.2% v/v propionic acid was added to aqueous solution in order to preserve form bacteria and mold contamination. HEC was dispersed in the pre-gel solution at 25°C under magnetic stirring, overnight. Gel containing compound 2 was stored at 25°C in the dark. At predetermined data points, the formulations were visually inspected to evidence aggregate formations and the pH was measured. Rheological evaluations were performed using a rotational viscometer (Bohlin Model Visco 88, Bohlin Instruments, UK). Appropriate measuring spindles (C14 DIN) were used during viscosity measurements. Samples were loaded into the cup and allowed to equilibrate for 10 min at desired temperature (25 ± 0.5°C) and apparent viscosity (mPa s) was determined using a shear rate of 552 s^-1 over a 1 month period.

SMILES | EC50 (HIV-1 AD8 WT) [µM] | EC50 [1] [µM] | EC50 [2] [µM] | CC50 [3] [µM] | SI (Selectivity Index) (human CD4+ T lymphocytes) | EC50 (HSV-1; Human alphaherpesvirus 1, Vero) [µM] | EC50 (HSV-1) [µM] | EC50 [4] [µM] | antiviral activity on HPV-16 (HPV-16 PsVs) | EC50 (NL4.3 HIV strain) [µM] | recovery after 1 month of storage [5]
O=C(O)c1ccc(-c2ccc(/C=C3\SC(=S)N(Cc4ccc(Cl)cc4)C3=O)o2)cc1O [Compound 2] | 0.011 ± 0.001 | 0.009 ± 0.002 | 0.008 ± 0.003 | 0.81 ± 0.02 | 62 | 0.132 | 0.131 ± 0.0599 | 0.0107 ± 0.00634 | without any antiviral activity on HPV-16 | 13 | about 100%
O=C(O)c1ccc(-c2ccc(/C=C3\SC(=S)N(Cc4ccc(F)cc4)C3=O)o2)cc1O [Compound 1] |  |  |  |  |  |  |  |  | without any antiviral activity on HPV-16 |  | 
